Like-named read-outs stand apart in the source and are kept apart here.
Legend:
[1] = test system: psycho neuro-vegetative syndrome of the natural or surgical menopause
Experimental: A patient, suffering considerable neuro-vegetative symptoms in the natural menopause mainly with attacks of sweating and hot flushes (30-40 a day), was treated orally with N-(1'-allyl-2'-pyrrolidylmethyl)-2,3-dimethoxy-5-sulfamoylbenzamide at a dosage of 100 mg per day. […] The following is a comparison of the patient's neuro-vegetative symptoms before treatment with treatment after eight days:
The patient was treated orally with N-(1'-allyl-2'-pyrrolidylmethyl)-2,3-dimethoxy-5-sulfamoylbenzamide at a dosage rate of 100 mg per day.
A patient had considerable neuro-vegetative symptoms in the natural menopause with mainly hot flushes and headaches.
The patient was treated orally with N-(1'-allyl-2'-pyrrolidylmethyl)-2,3-dimethoxy-5-sulfamoylbenzamide at a dosage rate of 100 mg per day for twenty days.
The patient was treated again in the same manner as previously at a dosage rate of 100 mg per day for twenty days.
A patient suffered neuro-vegetative symptoms in the surgical menopause with mainly hot flushes which set in following a hysterectomy for a fibroid tumor.

Wistar rat = experiment: Acute toxicity in the Wistar rat (oral administration); type: in vivo
From the text: (§1) The acute toxicity of the compound was studied in the Swiss mouse with both parenteral and oral administration and in the Wistar rat with oral administration.
However, the LD0 is approximately 1.5 g/kg.

female hamster = experiment: Effects on ovary and mammary glands in the female hamster; type: in vivo
From the text: (§2) Experiments have been carried out on both the female rat and the female hamster. The changes produced by the compound at the level of the ovary and of vaginal cytology make it possible to predict a point of impact located at the level of the hypothalamo hypophyso-ovarian axis.

male rats = conditions: rat, in vivo, sc
Experimental: The compound was administered subcutaneously to male rats. The criterion for the cataleptic state was the immobility of the animal for 30 seconds with its front limbs apart and arranged carefully on cubes of wood 4 centimeters high, thus placing the animal in an unaccustomed and uncomfortable position.

[2] = Semichronic toxicity in the Wistar rat, oral, four weeks; conditions: in vivo, doses 0.5, 1 and 2 g/kg per 24 hours, read-out: relatively or completely non-toxic up to (dose)
Experimental: In the rat the compound was administered in doses of 0.5, 1 and 2 g/kg per 24 hours.

patients = conditions: human, in vivo
[3] = Acute toxicity in the Swiss mouse (parenteral and oral administration); conditions: in vivo
From the text: as §1

[4] = test system: psycho neuro-vegetative symptoms of the menopause; experiment: Double-blind study against placebo on the psycho neuro-vegetative symptoms of the menopause; type: in vivo, human; conditions: forty observations, double blinding against placebo
From the text: The action of the compound on the psycho neuro-vegetative symptoms of the menopause has been studied with double blinding against placebo.

[5] = test system: psycho neuro-vegetative syndrome of the natural or surgical menopause; experiment: Clinical results in patients with psycho neuro-vegetative syndrome of the menopause (243 patients); type: in vivo, human
female rat = experiment: Effects on ovary, vaginal cytology and mammary glands in the female rat; type: in vivo
From the text: as §2

[6] = Example 18, 100 mg per day oral, after eight days, before: Severe
[7] = Example 19, 100 mg per day oral, eight days, before: Severe
[8] = Example 20, 100 mg per day oral for twenty days, before: Severe
[9] = Example 21, 100 mg per day oral for twenty days, before: Severe
[10] = Example 21, 100 mg per day oral for twenty days, before: Yes
[11] = Example 22, 100 mg per day oral for twenty days, before: Medium
[12] = Example 22, 100 mg per day oral for twenty days, before: Yes
[13] = Example 23, 100 mg per day oral for twenty days, before: Severe
[14] = Example 23, 100 mg per day oral for twenty days, before: Yes
[15] = female hamster, subcutaneous injections, 3.5 and 10 mg/kg
[16] = female rat, subcutaneous injections, 3.5 and 10 mg/kg

## C=CCN1CCCC1CNC(=O)c1cc(S(N)(=O)=O)cc(OC)c1OC (stereo not drawn) [N-(1'-allyl-2'-pyrrolidylmethyl)-2,3-dimethoxy-5-sulfamoylbenzamide]
[1]; 100 mg per day oral, first treatment, Examples 19, 20, 22
  results of the treatment: excellent
[1]; Example 18, 100 mg per day oral, after eight days, before: Medium
  Headaches, After Treatment: None
[1]; [6]
  Hot Flushes: Frequency, After Treatment: None
  Hot Flushes: Intensity, After Treatment: None
  Irritability, After Treatment: Slight
[1]; Example 18, 100 mg per day oral, after eight days, before: Slight
  Anxiety, After Treatment: None
[1]; Example 18, 100 mg per day oral, after two days (before: hot flushes 30-40 a day)
  flashes and sweating attacks: 8 per day
[1]; Example 19, 100 mg per day oral, eight days, before: Medium
  Anxiety, After Treatment: Slight
[1]; [7]
  Headaches, After Treatment: Slight
  Hot Flushes: Frequency, After Treatment: None
  Hot Flushes: Intensity, After Treatment: None
  Irritability, After Treatment: Slight
[1]; Example 20, 100 mg per day oral for twenty days, before: Medium
  Headaches, After Treatment: None
[1]; [8]
  Hot Flushes: Frequency, After Treatment: None
  Hot Flushes: Intensity, After Treatment: None
  Irritability, After Treatment: Slight
[1]; [9]
  Hot Flushes: Frequency, Twenty Days After Treatment: None
  Hot Flushes: Intensity, Twenty Days After Treatment: None
[1]; [10]
  Abdominal Meteorism, Twenty Days After Treatment: No
  Anxiety, Twenty Days After Treatment: No
[1]; [11]
  Hot Flushes: Frequency, Twenty Days After Treatment: None
  Hot Flushes: Intensity, Twenty Days After Treatment: None
[1]; [12]
  Anxiety, Twenty Days After Treatment: No
  Irritability, Twenty Days After Treatment: No
[1]; Example 23, 100 mg per day oral for twenty days
  reappearance of symptoms after end of second treatment: appeared again five days after termination of the second treatment
[1]; [13]
  Hot Flushes: Frequency, Twenty Days After Treatment: Slight
  Hot Flushes: Intensity, Twenty Days After Treatment: Slight
[1]; [14]
  Anxiety, Twenty Days After Treatment: No
  Depression, Twenty Days After Treatment: No
  Irritability, Twenty Days After Treatment: Yes
  Libido Change, Twenty Days After Treatment: Yes
Wistar rat; Wistar rat, oral
  LD50: toxicity of the compound was so low that the LD50 could not be determined
Wistar rat; rat, in vivo, po
  LD0: approximately 1.5 g/kg
  LD100: > 4000 mg/kg
Female hamster; [15]
  corpora lutea of the ovary: caused the corpora lutea of the ovary to be maintained
  progesterone secretion by the maintained corpora lutea: secreted increased quantities of progesterone
Female hamster; hamster
  development of the mammary glands: development of the mammary glands was noted
Female hamster; hamster, at the highest doses
  secretory activity of the mammary glands: signs of secretory activity
Male rats
  cataleptic action: virtually no cataleptic action
Male rats; 200 mg/kg
  animals made cataleptic: 30%
[2]
  NOAEL at 672 h: 1000 mg/kg/day
patients
  clinical and biological tolerance: excellent
  side effects including mammary congestion, galactorrhea, drowsiness, etc. (cases): less than 8 % of the cases
patients; po
  acceptability of the treatment: perfect acceptability
  general tolerance: excellent general tolerance
  premature interruption of treatment, aversion or troublesome side effects: In no case was the course of treatment interrupted prematurely
[3]; ip
  LD50: 320 mg/kg
[3]; iv
  LD50: 124 to 129 mg/kg
[3]; po
  LD50: 1300 mg/kg
[3]; sc
  LD50: 465 to 518 mg/kg
[4]
  difference between compound and placebo: very significant difference
[5]; 32 cases
  Vulvar Irritation: Percentage Very Good & Good: 84%
  Vulvar Irritation: Results, Average & Zero (number of cases): 5
  Vulvar Irritation: Results, Very Good & Good (number of cases): 27
[5]; 211 cases
  Hot Flushes: Percentage Very Good & Good: 73.9%
  Hot Flushes: Results, Average & Zero (number of cases): 55
  Hot Flushes: Results, Very Good & Good (number of cases): 156
[5]; cases of hot flushes
  effectiveness excellent or good in hot flushes: 74 % of the cases
[5]; cases of vulvar irritation
  vulvar irritation eliminated: 84 % of the cases
[5]; patients, menopause
  effective in psycho neuro-vegetative syndrome of the menopause (hot flashes, vulvar pruritus, vaginal diseases): 84 % of the cases treated
[5]; patients, natural or surgical menopause
  patient's mental state: parallel improvement in the patient's mental state
Female rat; female rat
  change to the uterus: little change to the uterus
  vaginal cycle: blocked in dioestrus
  vaginal epithelium: primsmatic, indicating the predominance of progesterone over estrogens
Female rat; [16]
  corpora lutea of the ovary: caused the corpora lutea of the ovary to be maintained
  progesterone secretion by the maintained corpora lutea: secreted increased quantities of progesterone
Female rat; mammary gland development
  susceptibility, rat versus hamster: The rat appeared to be more susceptible than the hamster
Female rat; rat
  development of the mammary glands: development of the mammary glands was noted
Female rat; rat, at the highest doses
  secretory activity of the mammary glands: signs of secretory activity
